Patent US9707233B2, “Heterocyclylamines as PI3K inhibitors” (Incyte Corporation, priority 2011, dated 2017)

Molecular target: PI3Kδ (p110δ/p85α) (Homo sapiens (Human), UniProt O00329)
Experiment: PI3Kδ scintillation proximity assay (Example A3)
Type: biochemical
Conditions: 20 μM ATP, 20 μM PIP2, 4 nM PI3Kδ; read-out: PI3Kδ SPA IC50
Method: [γ-^33P]ATP (10 mCi/mL) was purchased from Perkin-Elmer (Waltham, Mass.). […] PI3Kδ (p110δ/p85α) was purchased from Millipore (Bedford, Mass.). ATP, MgCl2, DTT, EDTA, MOPS and CHAPS were purchased from Sigma-Aldrich (St. Louis, Mo.). Wheat Germ Agglutinin (WGA) YSi SPA Scintillation Beads was purchased from GE healthcare life sciences (Piscataway, N.J.).
The kinase reaction was conducted in polystyrene 384-well matrix white plate from Thermo Fisher Scientific in a final volume of 25 μL. Inhibitors were first diluted serially in DMSO and added to the plate wells before the addition of other reaction components. The final concentration of DMSO in the assay was 0.5%. The PI3K assays were carried out at room temperature in 20 mM MOPS, pH 6.7, 10 mM MgCl2, 5 mM DTT and CHAPS 0.03%. Reactions were initiated by the addition of ATP, the final reaction mixture consisted of 20 μM PIP2, 20 μM ATP, 0.2 μCi [γ-^33P]ATP, 4 nM PI3Kδ. […] 25 mM EDTA, 400 μM ATP. The final concentration of SPA beads was 1.0 mg/mL. After the plate sealing, plates were shaken overnight at room temperature and centrifuged at 1800 rpm for 10 minutes, the radioactivity of the product was determined by scintillation counting on Topcount (Perkin-Elmer). IC50 determination was performed by fitting the curve of percent control activity versus the log of the inhibitor concentration using the GraphPad Prism 3.0 software.

Sequence of PI3Kδ (p110δ/p85α) (O00329 whole entry): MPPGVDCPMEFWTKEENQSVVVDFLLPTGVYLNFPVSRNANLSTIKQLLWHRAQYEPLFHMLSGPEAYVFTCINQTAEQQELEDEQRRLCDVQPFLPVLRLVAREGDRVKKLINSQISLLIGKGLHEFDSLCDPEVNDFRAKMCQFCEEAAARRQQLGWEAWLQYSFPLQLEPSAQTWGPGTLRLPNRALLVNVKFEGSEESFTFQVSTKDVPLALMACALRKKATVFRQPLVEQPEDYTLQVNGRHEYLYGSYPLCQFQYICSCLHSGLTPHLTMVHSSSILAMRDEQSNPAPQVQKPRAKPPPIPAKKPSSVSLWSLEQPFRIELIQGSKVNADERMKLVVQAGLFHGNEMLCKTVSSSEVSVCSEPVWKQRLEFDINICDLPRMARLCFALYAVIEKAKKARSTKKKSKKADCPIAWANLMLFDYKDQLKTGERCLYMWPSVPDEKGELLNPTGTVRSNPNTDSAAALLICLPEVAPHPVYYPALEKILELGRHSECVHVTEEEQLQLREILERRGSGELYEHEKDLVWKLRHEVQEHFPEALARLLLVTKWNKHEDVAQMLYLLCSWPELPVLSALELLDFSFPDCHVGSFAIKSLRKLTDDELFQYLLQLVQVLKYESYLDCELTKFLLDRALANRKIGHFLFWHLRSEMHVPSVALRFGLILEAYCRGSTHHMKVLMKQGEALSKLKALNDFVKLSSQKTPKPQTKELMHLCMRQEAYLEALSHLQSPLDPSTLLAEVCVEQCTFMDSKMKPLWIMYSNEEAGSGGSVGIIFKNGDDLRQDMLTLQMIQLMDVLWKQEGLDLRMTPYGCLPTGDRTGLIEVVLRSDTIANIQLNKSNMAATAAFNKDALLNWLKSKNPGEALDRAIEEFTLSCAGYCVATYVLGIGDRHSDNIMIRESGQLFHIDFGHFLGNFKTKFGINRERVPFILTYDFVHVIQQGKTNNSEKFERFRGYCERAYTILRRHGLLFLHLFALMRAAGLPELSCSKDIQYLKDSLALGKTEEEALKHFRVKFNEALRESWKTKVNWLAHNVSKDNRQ
Sequence of PI3Kδ (p110δ/p85α) (P27986 whole entry partner): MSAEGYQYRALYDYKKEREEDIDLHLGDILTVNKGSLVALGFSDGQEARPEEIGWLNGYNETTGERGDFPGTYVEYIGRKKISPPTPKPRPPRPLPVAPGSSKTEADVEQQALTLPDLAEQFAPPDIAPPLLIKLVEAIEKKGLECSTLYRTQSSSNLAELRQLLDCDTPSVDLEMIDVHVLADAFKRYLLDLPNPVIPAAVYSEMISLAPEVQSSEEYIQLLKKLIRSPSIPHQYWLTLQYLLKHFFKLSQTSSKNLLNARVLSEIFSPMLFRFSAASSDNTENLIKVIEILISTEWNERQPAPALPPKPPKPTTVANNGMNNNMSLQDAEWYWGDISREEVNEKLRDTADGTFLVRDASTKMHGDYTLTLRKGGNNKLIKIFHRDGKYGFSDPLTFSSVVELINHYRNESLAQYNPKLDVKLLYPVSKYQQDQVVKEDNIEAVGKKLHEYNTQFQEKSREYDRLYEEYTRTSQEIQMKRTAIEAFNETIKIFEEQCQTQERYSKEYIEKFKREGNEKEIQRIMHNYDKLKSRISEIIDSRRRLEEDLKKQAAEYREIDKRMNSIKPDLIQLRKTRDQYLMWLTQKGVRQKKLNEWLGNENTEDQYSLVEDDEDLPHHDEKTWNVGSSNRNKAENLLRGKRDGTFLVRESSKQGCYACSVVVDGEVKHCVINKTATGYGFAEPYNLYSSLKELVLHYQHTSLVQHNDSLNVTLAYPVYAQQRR

IC50	SMILES
10 to 50 nM	CCOc1c(C(C)n2nc(C#N)c3c(N)ncnc32)cc(Cl)c(C)c1-c1ccc(C(=O)N(C)C)nc1 (racemic) [Example 54, 5-{3-[1-(4-amino-3-cyano-1H-pyrazolo[3,4-d]pyrimidin-1-yl)ethyl]-5-chloro-2-ethoxy-6-methylphenyl}-N,N-dimethylpyridine-2-carboxamide]
10 to 50 nM	CCOc1c(C(C)n2nc(-c3ccc(F)cc3)c3c(N)ncnc32)cc(Cl)c(C)c1-c1ccc(C(=O)N(C)C)nc1 (racemic) [Example 55, 5-(3-{1-[4-amino-3-(4-fluorophenyl)-1H-pyrazolo[3,4-d]pyrimidin-1-yl]ethyl}-5-chloro-2-ethoxy-6-methylphenyl)-N,N-dimethylpyridine-2-carboxamide bis(trifluoroacetate)]
10 to 50 nM	CCOc1c(C(C)n2nc(-c3ccc(C(=O)N(C)C)nc3)c3c(N)ncnc32)cc(Cl)c(C)c1-c1ccc(C(=O)N(C)C)nc1 (racemic) [Example 56, 5-{4-amino-1-[1-(5-chloro-3-{6-[(dimethylamino)carbonyl]pyridin-3-yl}-2-ethoxy-4-methylphenyl)ethyl]-1H-pyrazolo[3,4-d]pyrimidin-3-yl}-N,N-dimethylpyridine-2-carboxamide tris(trifluoroacetate)]
≤ 10 nM	CCOc1c(C(C)n2nc(-c3cnc(N)nc3)c3c(N)ncnc32)cc(Cl)c(C)c1-c1ccc(C(=O)N(C)C)nc1 (racemic) [Example 58, 5-(3-{1-[4-amino-3-(2-aminopyrimidin-5-yl)-1H-pyrazolo[3,4-d]pyrimidin-1-yl]ethyl}-5-chloro-2-ethoxy-6-methylphenyl)-N,N-dimethylpyridine-2-carboxamide tris(trifluoroacetate)]
≤ 10 nM	CCOc1c(C(C)n2nc(-c3ccncc3)c3c(N)ncnc32)cc(Cl)c(C)c1-c1ccc(C(=O)N(C)C)nc1 (racemic) [Example 60, 5-{3-[1-(4-amino-3-pyridin-4-yl-1H-pyrazolo[3,4-d]pyrimidin-1-yl)ethyl]-5-chloro-2-ethoxy-6-methylphenyl}-N,N-dimethylpyridine-2-carboxamide tris(trifluoroacetate)]
≤ 10 nM	CCOc1c(C(C)n2nc(-c3cccnc3)c3c(N)ncnc32)cc(Cl)c(C)c1-c1ccc(C(=O)N(C)C)nc1 (racemic) [Example 61, 5-{3-[1-(4-amino-3-pyridin-3-yl-1H-pyrazolo[3,4-d]pyrimidin-1-yl)ethyl]-5-chloro-2-ethoxy-6-methylphenyl}-N,N-dimethylpyridine-2-carboxamide tris(trifluoroacetate)]
≤ 10 nM	CCOc1c(C(C)n2nc(-c3cncc(C(=O)N(C)C)c3)c3c(N)ncnc32)cc(Cl)c(C)c1-c1ccc(C(=O)N(C)C)nc1 (racemic) [Example 62, 5-{3-[1-(4-amino-3-{5-[(dimethylamino)carbonyl]pyridin-3-yl}-1H-pyrazolo[3,4-d]pyrimidin-1-yl)ethyl]-5-chloro-2-ethoxy-6-methylphenyl}-N,N-dimethylpyridine-2-carboxamide tris(trifluoroacetate)]
50 to 200 nM	CCOc1c(C(C)n2nc(CC)c3c(N)ncnc32)cc(Cl)c(C)c1-c1ccc(C(=O)N(C)C)nc1 (racemic) [Example 81, 5-{3-[1-(4-Amino-3-ethyl-1H-pyrazolo[3,4-d]pyrimidin-1-yl)ethyl]-5-chloro-2-ethoxy-6-methylphenyl}-N,N-dimethylpyridine-2-carboxamide]
≤ 10 nM	CCOc1c(C(C)n2nc(CO)c3c(N)ncnc32)cc(Cl)c(C)c1-c1ccc(C(=O)N(C)C)nc1 (racemic) [Example 83, 5-(3-{1-[4-Amino-3-(hydroxymethyl)-1H-pyrazolo[3,4-d]pyrimidin-1-yl]ethyl}-5-chloro-2-ethoxy-6-methylphenyl)-N,N-dimethylpyridine-2-carboxamide bis(trifluoroacetate)]
≤ 10 nM	CCOc1c(C(C)n2nc(CF)c3c(N)ncnc32)cc(Cl)c(C)c1-c1ccc(C(=O)N(C)C)nc1 (racemic) [Example 86, 5-(3-{1-[4-Amino-3-(fluoromethyl)-1H-pyrazolo[3,4-d]pyrimidin-1-yl]ethyl}-5-chloro-2-ethoxy-6-methylphenyl)-N,N-dimethylpyridine-2-carboxamide bis(trifluoroacetate)]

The remaining lines, values behind:

SMILES	IC50
CCOc1c(C(C)n2nc(C3CC3)c3c(N)ncnc32)cc(Cl)c(C)c1-c1ccc(C(=O)N(C)C)nc1 (racemic) [Example 53, 5-{3-[1-(4-amino-3-cyclopropyl-1H-pyrazolo[3,4-d]pyrimidin-1-yl)ethyl]-5-chloro-2-ethoxy-6-methylphenyl}-N,N-dimethylpyridine-2-carboxamide bis(trifluoroacetate)]	≤ 10 nM
COc1c(C(C)n2nc(C)c3c(N)ncnc32)cc(Cl)c(F)c1C1CN(CC(C)(C)O)C1 (racemic) [Example 70, 1-(3-{3-[1-(4-Amino-3-methyl-1H-pyrazolo[3,4-d]pyrimidin-1-yl)ethyl]-5-chloro-6-fluoro-2-methoxyphenyl}azetidin-1-yl)-2-methylpropan-2-ol]	≤ 10 nM
COc1c(C(C)n2nc(C(F)F)c3c(N)ncnc32)cc(C#N)c(F)c1C1CN(CCO)C1 (racemic) [Example 78, 5-{1-[4-Amino-3-(difluoromethyl)-1H-pyrazolo[3,4-d]pyrimidin-1-yl]ethyl}-2-fluoro-3-[1-(2-hydroxyethyl)azetidin-3-yl]-4-methoxybenzonitrile]	≤ 10 nM
CCOc1c(C(C)n2nc(CNC)c3c(N)ncnc32)cc(Cl)c(C)c1-c1ccc(C(=O)N(C)C)nc1 (racemic) [Example 84, 5-[3-(1-{4-Amino-3-[(methylamino)methyl]-1H-pyrazolo[3,4-d]pyrimidin-1-yl}ethyl)-5-chloro-2-ethoxy-6-methylphenyl]-N,N-dimethylpyridine-2-carboxamide tris(trifluoroacetate)]	50 to 200 nM
CCOc1c(C(C)n2nc(CN(C)C)c3c(N)ncnc32)cc(Cl)c(C)c1-c1ccc(C(=O)N(C)C)nc1 (racemic) [Example 85, 5-[3-(1-{4-Amino-3-[(dimethylamino)methyl]-1H-pyrazolo[3,4-d]pyrimidin-1-yl}ethyl)-5-chloro-2-ethoxy-6-methylphenyl]-N,N-dimethylpyridine-2-carboxamide tris(trifluoroacetate)]	50 to 200 nM
CCOc1c(C(C)n2nc(C)c3c(N)ncnc32)cc(Cl)c(C)c1C1CN(CCO)C1 (racemic) [Example 95, 2-(3-{3-[1-(4-Amino-3-methyl-1H-pyrazolo[3,4-d]pyrimidin-1-yl)ethyl]-5-chloro-2-ethoxy-6-methylphenyl}azetidin-1-yl)ethanol bis(trifluoroacetate)]	≤ 10 nM
COc1c(C(C)n2nc(-c3cnn(C)c3)c3c(N)ncnc32)cc(Cl)c(C)c1C1CN(CC#N)C1 (racemic) [Example 125, [3-(3-{1-[4-Amino-3-(1-methyl-1H-pyrazol-4-yl)-1H-pyrazolo[3,4-d]pyrimidin-1-yl]ethyl}-5-chloro-2-methoxy-6-methylphenyl)azetidin-1-yl]acetonitrile bis(trifluoroacetate)]	≤ 10 nM
CCOc1c(C(C)n2nc(C)c3c(N)ncnc32)cc(Cl)c(F)c1C1CN(C)C1 (racemic) [Example 145, 1-{1-[5-Chloro-2-ethoxy-4-fluoro-3-(1-methylazetidin-3-yl)phenyl]ethyl}-3-methyl-1H-pyrazolo[3,4-d]pyrimidin-4-amine]	≤ 10 nM
CCOc1c(C(C)n2nc(C)c3c(N)ncnc32)cc(Cl)c(F)c1C1CN(CC)C1 (racemic) [Example 146, 1-{1-[5-Chloro-2-ethoxy-3-(1-ethylazetidin-3-yl)-4-fluorophenyl]ethyl}-3-methyl-1H-pyrazolo[3,4-d]pyrimidin-4-amine]	≤ 10 nM
CCOc1c(C(C)n2nc(C(F)F)c3c(N)ncnc32)cc(Cl)c(F)c1C1CN(C(C)C)C1 (racemic) [Example 150, 1-{1-[5-Chloro-2-ethoxy-4-fluoro-3-(1-isopropylazetidin-3-yl)phenyl]ethyl}-3-(difluoromethyl)-1H-pyrazolo[3,4-d]pyrimidin-4-amine]	≤ 10 nM
CCOc1c(C(C)n2nc(C(F)F)c3c(N)ncnc32)cc(Cl)c(F)c1C1CN(C)C1 (racemic) [Example 151, 1-{1-[5-Chloro-2-ethoxy-4-fluoro-3-(1-methylazetidin-3-yl)phenyl]ethyl}-3-(difluoromethyl)-1H-pyrazolo[3,4-d]pyrimidin-4-amine]	≤ 10 nM
CCOc1c(C(C)n2nc(C(F)F)c3c(N)ncnc32)cc(Cl)c(F)c1C1CN(CCO)C1 (racemic) [Example 152, 2-[3-(3-{-1-[4-Amino-3-(difluoromethyl)-1H-pyrazolo[3,4-d]pyrimidin-1-yl]ethyl}-5-chloro-2-ethoxy-6-fluorophenyl)azetidin-1-yl]ethanol]	≤ 10 nM
CCOc1c(C(C)n2nc(C(F)F)c3c(N)ncnc32)cc(Cl)c(F)c1C1CN(CC(C)(C)O)C1 (racemic) [Example 153, 1-[3-(3-{1-[4-Amino-3-(difluoromethyl)-1H-pyrazolo[3,4-d]pyrimidin-1-yl]ethyl}-5-chloro-2-ethoxy-6-fluorophenyl)azetidin-1-yl]-2-methylpropan-2-ol]	≤ 10 nM
